Legend:
[1] = hygienic hazard indices in water
Description: (§1) Testing the safe method for producing and utilizing the claimed titanium coagulant (absence of mutagenous impact; sensibilizing, allergenic, carcinogenic, gonadotoxic and other action) was carried out on the base of the State organ SRI of human ecology and environmental hygiene named after A.N. Sysin of the Russian Academy of Medical Sciences (RAMS).
(§2) Particularly, derivatives of aluminium oxychloride (AOC) and aluminium sulfate are monitored in accordance with the aluminium content in potable water. While testing the new coagulant, the same principles for evaluating the titanium coagulant safety as the safety evaluation of coagulants based on aluminium were applied. […]
One can see from the Table 22 that the method for producing the titanium coagulant and the coagulant generally are safe by the main hygienic indices, and control of the titanium coagulant content in purified water should be performed in accordance with the titanium and aluminium content therein pursuant to the MAC of 0.1 mg/L and 0.2 mg/L, respectively, established for them.

[2] = acute toxicity (hazard indices); details: in vivo
Description: as §1, §2

Compound	L.conc. ([1]; muddiness)	LD50 [2] [mg/kg]	Min.possi bl [1] [mg/kg]	L.conc. ([1]; retardation)	L.conc. ([1]; taint)	MAC [1] [mg/L]
[Al] [Aluminium]	0.2 (muddiness) mg/L	180 to 1360				
Titanium		150	1.0	0.1 (retardation) mg/L	4.5 (taint) mg/L	
aluminium oxychloride [AOC, reference compound]	1.45 (muddiness) mg/L		1.0	1.0 (retardation) mg/L		1.5
